Target: T1, Human TRPV3 (Homo sapiens, UniProt Q8NET8)
T1 construct: expressed in transfected cells; host or cells: CHO cells (selected with G-418)
T1 sequence (Q8NET8 1-790): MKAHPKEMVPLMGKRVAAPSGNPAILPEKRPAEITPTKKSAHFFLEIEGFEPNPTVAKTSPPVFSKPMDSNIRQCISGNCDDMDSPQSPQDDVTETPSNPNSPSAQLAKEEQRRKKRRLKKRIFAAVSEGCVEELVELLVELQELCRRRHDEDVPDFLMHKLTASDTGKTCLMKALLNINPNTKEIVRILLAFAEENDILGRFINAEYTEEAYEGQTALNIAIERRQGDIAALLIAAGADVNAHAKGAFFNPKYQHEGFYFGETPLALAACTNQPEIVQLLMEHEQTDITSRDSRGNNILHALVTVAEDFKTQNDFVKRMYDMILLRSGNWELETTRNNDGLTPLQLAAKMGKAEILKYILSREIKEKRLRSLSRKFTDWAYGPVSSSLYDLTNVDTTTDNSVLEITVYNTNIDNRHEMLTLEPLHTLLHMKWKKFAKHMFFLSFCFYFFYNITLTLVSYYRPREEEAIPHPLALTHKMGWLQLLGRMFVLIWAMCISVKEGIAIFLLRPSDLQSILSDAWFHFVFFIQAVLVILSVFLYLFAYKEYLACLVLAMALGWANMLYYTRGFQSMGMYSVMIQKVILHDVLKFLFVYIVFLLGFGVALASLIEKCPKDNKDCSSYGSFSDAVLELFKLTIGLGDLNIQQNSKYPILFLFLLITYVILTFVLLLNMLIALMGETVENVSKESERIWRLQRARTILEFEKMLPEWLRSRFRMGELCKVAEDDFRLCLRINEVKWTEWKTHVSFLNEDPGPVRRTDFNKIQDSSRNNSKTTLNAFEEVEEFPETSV
Test: 45Calcium uptake assay: inhibition of 2-APB induced cellular uptake of radioactive calcium
Type: cell-based
Details: human TRPV3 expressing CHO cells, 2-APB 500 μM; for inhibition at 1 µM: 1 μM test compound, read-out: Percentage Inhibition (1 μM); for inhibition at 10 µM: 10 μM test compound, read-out: Percentage Inhibition (10 μM)
Method in brief: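 CHO cells expressing human TRPV3 were preincubated with compound for 10 min (0.5% DMSO final), then given 500 μM 2-APB plus 5 μCi/ml 45Ca2+ for 4 min. Lysate radioactivity was counted by scintillation; responses as % of maximal without antagonist, with IC50 by nonlinear regression.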

Compound | inhibition at 1 µM [%] | inhibition at 10 µM [%] | IC50 (class symbol) [nM] | IC50 (numeric value) [nM]
COc1cccc(/C=C/c2nc3cc(F)c(Cl)cc3n2-c2ccc(C#N)cn2)c1OC1CCCC1 [Example 70, 6-{6-Chloro-2-[(E)-2-(2-[cyclopentyloxy]-3-methoxyphenyl)vinyl]-5-fluoro-1H-benzimidazol-1-yl}nicotinonitrile] | 96.2 | 98.1 | 50 to 100 | 
COc1cccc(/C=C/c2nc3cc(Cl)c(C(F)(F)F)cc3n2-c2ccc(C#N)cn2)c1OC1CCCC1 [Example 71, 6-{5-Chloro-2-[(E)-2-(2-cyclopentyloxy-3-methoxyphenyl)vinyl]-6-(trifluoromethyl)-1H-benzimidazol-1-yl}nicotinonitrile] | 53.7 | 79.4 |  | 
COc1cccc(/C=C/c2nc3cc(Cl)c(Cl)cc3n2-c2ccc(C#N)cn2)c1OC1CCCC1 [Example 72, 6-{5,6-Dichloro-2-[(E)-2-(2-cyclopentyloxy-3-methoxyphenyl)vinyl]-1H-benzimidazol-1-yl}nicotinonitrile] | 90.8 | 95.5 | 100 to 500 | 
CCOC(=O)c1ccc(-n2c(/C=C/c3cccc(OC)c3OC3CCCC3)nc3cc(F)c(F)cc32)nn1 [Example 73, Ethyl 6-{2-[(E)-2-(2-cyclopentyloxy-3-methoxyphenyl)vinyl]-5,6-difluoro-1H-benzimidazol-1-yl}pyridazine-3-carboxylate] | 53.5 | 75.5 |  | 
COc1cccc(/C=C/c2nc3cc(F)c(F)cc3n2-c2ccc(C(=O)O)nn2)c1OC1CCCC1 [Example 74, 6-{2-[(E)-2-(2-Cyclopentyloxy-3-methoxyphenyl)vinyl]-5,6-difluoro-1H-benzimidazol-1-yl}pyridazine-3-carboxylic acid] | 1.7 | 1.51 |  | 
COc1cccc(/C=C/c2nc3cc(F)c(F)cc3n2-c2ccc(C(N)=O)nn2)c1OC1CCCC1 [Example 75, 6-{2-[(E)-2-(2-Cyclopentyloxy-3-methoxyphenyl)vinyl]-5,6-difluoro-1H-benzimidazol-1-yl}pyridazine-3-carboxamide] | 34.4 | 90.7 |  | 
COc1cccc(/C=C/c2nc3cc(F)c(F)cc3n2-c2ccc(C#N)nn2)c1OC1CCCC1 [Example 76, 6-{2-[(E)-2-(2-Cyclopentyloxy-3-methoxyphenyl)vinyl]-5,6-difluoro-1H-benzimidazol-1-yl}pyridazine-3-carbonitrile] | 96.3 | 97 | 100 to 500 | 
CCC(CC)Oc1c(/C=C/c2nc3cc(F)c(F)cc3n2-c2ccc(C#N)cn2)cccc1OC [Example 77, 6-{2-[(E)-2-(2-(1-ethylpropoxy)-3-methoxyphenyl)vinyl]-5,6-difluoro-1H-benzimidazol-1-yl}nicotinonitrile] | 93.2 | 98.7 | 50 to 100 | 
CCCCCOc1c(/C=C/c2nc3cc(F)cc(F)c3n2-c2ccc(C#N)cn2)cccc1OC [Example 78, 6-{5,7-Difluoro-2-[(E)-2-(2-pentyloxy-3-methoxyphenyl)vinyl]-1H-benzimidazol-1-yl}nicotinonitrile] | 92.7 | 96.8 | 50 to 100 | 
COc1cccc(/C=C/c2nc3cc(F)cc(F)c3n2-c2ccc(C#N)cn2)c1OC1CCCC1 [Example 79, 6-{5,7-Difluoro-2-[(E)-2-(2-[cyclopentyloxy]-3-methoxyphenyl)vinyl]-1H-benzimidazol-1-yl}nicotinonitrile] | 93.7 | 96.8 | 50 to 100 | 69.2
COc1cccc(/C=C/c2nc3c(F)cc(F)cc3n2-c2ccc(C#N)cn2)c1OC1CCCC1 [Example 80, 6-{4,6-Difluoro-2-[(E)-2-(2-[cyclopentyloxy]-3-methoxyphenyl)vinyl]-1H-benzimidazol-1-yl}nicotinonitrile] | 97.6 | 98.8 | 50 to 100 | 
CCCCCOc1c(/C=C/c2nc3c(F)c(F)c(F)cc3n2-c2ccc(C#N)cn2)cccc1OC [Example 81, 6-{2-[(E)-2-(2-pentyloxy-3-methoxyphenyl)vinyl]-4,5,6-trifluoro-1H-benzimidazol-1-yl}nicotinonitrile] | 90.7 | 95.7 | < 50 | 
CCCCCOc1c(/C=C/c2nc3cc(F)c(F)cc3n2-c2ccc(C#N)cn2)cccc1OC(F)F [Example 82, 6-(2-{(E)-2-[3-(Difluoromethoxy)-2-pentyloxyphenyl]vinyl}-5,6-difluoro-1H-benzimidazol-1-yl)nicotinonitrile] | 97 | 98.9 | 50 to 100 | 
N#Cc1ccc(-n2c(/C=C/c3cccc(OC(F)F)c3OCC3CCC3)nc3cc(F)c(F)cc32)nc1 [Example 83, 6-(2-{(E)-2-[2-(Cyclobutylmethoxy)-3-difluoromethoxyphenyl]vinyl}-5,6-difluoro-1H-benzimidazol-1-yl)nicotinonitrile] | 96.7 | 97.7 | < 50 | 
N#Cc1ccc(-n2c(/C=C/c3cccc(OC(F)F)c3OC3CCCC3)nc3cc(F)c(F)cc32)nc1 [Example 84, 6-(2-{(E)-2-[2-(Cyclopentyloxy)-3-difluoromethoxyphenyl-]vinyl}-5,6-difluoro-1H-benzimidazol-1-yl)nicotinonitrile] | 98.4 | 99.3 | < 50 | 
CCCCOc1c(/C=C/c2nc3ccccc3n2-c2ccc(C(F)(F)F)cn2)cccc1OC [Example 85, 2-[(E)-2-(2-butoxy-3-methoxyphenyl)vinyl]-1-(5-trifluoromethylpyridin-2-yl)-1H-benzimidazole] | 71.1 | 90.2 | 100 to 500 | 
CCCCOc1c(/C=C/c2nc3cccnc3n2-c2ccc(C#N)cn2)cccc1OC [Example 86, 6-{2-[(E)-2-(2-Butoxy-3-methoxyphenyl)vinyl]-3H-imidazo[4,5-b]pyridin-3-yl}nicotinonitrile] | 92.6 | 95.2 | 100 to 500 | 
CCCCCOc1c(/C=C/c2nc3cccnc3n2-c2ccc(C#N)cn2)cccc1OC [Example 87, 6-{2-[(E)-2-(2-Pentyloxy-3-methoxyphenyl)vinyl]-3H-imidazo[4,5-b]pyridin-3-yl}nicotinonitrile] | 95.7 | 99.1 | 100 to 500 | 
CCCCCOc1c(/C=C/c2nc3ccc[n+]([O-])c3n2-c2ccc(C#N)cn2)cccc1OC [Example 88, 6(2-{(E)-2-[3-methoxy-2-(pentyloxy)phenyl]ethenyl}-4-oxido-3H-imidazo[4,5-b]pyridin-3-yl)pyridine-3-carbonitrile] | 25.1 | 71.1 |  | 
COc1cccc(/C=C/c2nc3cccnc3n2-c2ccc(C#N)cn2)c1OCC1CC1 [Example 89, 6-{2-[(E)-2-(2-[Cyclopropylmethoxy]-3-methoxyphenyl)vinyl]-3H-imidazo[4,5-b]pyridin-3-yl}nicotinonitrile] | 74.2 | 96.6 | 100 to 500 | 
COc1cccc(/C=C/c2nc3cccnc3n2-c2ccc(C#N)cn2)c1OCC1CCC1 [Example 90, 6-[2-{(E)-2-[2-(Cyclobutylmethoxy)-3-methoxyphenyl]vinyl}-3H-imidazo[4,5-b]pyridine-3-yl]nicotinonitrile] | 93.3 | 98.2 | 50 to 100 | 
